From patent US9867832B2, “Pharmaceutical composition for inhibiting immune response through inducing differentiation into regulator T cells and promoting proliferation of regulator T cells” (LG CHEM, LTD., priority 2013, dated 2018)

Experiments:
[1] = test system: CD4+CD25+Foxp3+ regulatory T cells; test: Increase of regulatory T cells in in vivo GVHD mouse model (Example 10); conditions: intravenous, four times a week for two weeks, spleen flow cytometry
Method: 6-8 week-old C57BL/6 (H-2kb) mouse and BALB/c (H-2kd) mouse which have different MHC class from each other were used. A recipient mouse BALB/c (H-2kd) was irradiated with systemic radiation at 8 Gy. Within 24 hours, bone marrow 5×10^6 cells and spleen 5×10^6 cells isolated from a donor mouse C57BL/6 […] were transplanted into the recipient mouse intravenously to induce graft-versus-host rejection reaction model (GVHD model). Compound A was intravenously injected into the GVHD model four times a week for two weeks. Mice were sacrificed, single-cell isolation was carried out, and the function of immune regulation in the spleen was investigated via flow cytometry. As a result, it was confirmed that in the group in which Compound A was administered CD4^+CD25^+Foxp3^+ regulatory T cells were increased.

[2] = test system: CD4+ T cells isolated from mouse spleen cells; test: In vitro differentiation of CD4+ T cells into regulatory T cells (aCD3, aCD28, TGF-beta); format: cell-based
Method: Experimentation for investigating the effect of the compound of the present invention on the differentiation of lymphocyte Th cells was carried out. 5×10^5 CD4+ T cells isolated from mouse spleen cells were dispensed into a 24-well plate coated with 1 μg/ml of anti-CD3 (aCD3), and then treated with 1 μg/ml of […] (aCD28) and 5 ng/ml of TGF-beta to induce the differentiation into regulatory T cells for 3 days. Before the differentiation into regulatory T cells, the compound (tetrahydropyran-4-yl)-[2-phenyl-5-(1,1-dioxo-thiomorpholin-4-yl)methyl-1H-indol-7-yl]amine (hereinafter referred to as “Compound A”) (LG Life Sciences Ltd., Daejeon, Korea) of the present invention was treated with the concentration of 40 μM and 80 μM. For flow cytometry, anti-mouse CD4 PerCP, CD25 APC and FoxP3 PE fluorescence-labeled antibodies were added thereto and reacted at 4° C. for 30 minutes. After washing with PBS, the measurement was carried out with a flow cytometer (FACSCalibur™)
In the course that 5×10^5 CD4^+ T cells isolated from mouse spleen cells were dispensed into a 24-well plate coated with 1 μg/ml of anti-CD3 (aCD3), and then treated with 1 μg/ml of […] (aCD28) and 5 ng/ml of TGF-beta to induce the differentiation into regulatory T cells for 3 days, the groups were divided into (1) 40 μM or 80 μM of Compound A single-treated group, (2) 0.1 μM of retinoic acid (RA) single-treated group, (3) 1 μM of retinal treated group, (4) 0.1 μM of RA and 40 μM or 80 μM of Compound A treated group, and (5) 1 μM of retinal and 40 μM or 80 μM of Compound A treated group, and the effect on the differentiation into regulatory T cells of each group was then compared.

[3] = test system: HMGB1; test: Real-time PCR of HMGB1 expression in spleen cells of GVHD mice; format: in vivo; conditions: GVHD mouse spleen cells, 7th and 14th day, time-dependent, vs control group
Method: Total RNA was extracted from the cells by the use of TRIzol reagent. 1 μg of RNA was reacted with AMV reverse transcriptase and random hexamer at 45° C. for 1 hour to synthesize cDNA. Real-time PCR was carried out by the use of a mixture in which 1 μg of cDNA as a template, primer S, primer AS and distilled water were mixed, and SYBR Green. The PCR was carried out by the use of I-IMGB 1 (5′-GATGGGCAAAGGAGATCCTAAG-3′ and 5′-TCACTTTTTTGTCTCCCCTTTGGG-3′) with the condition of 35 cycles of at 95° C. for 15 seconds, at 60° C. for 10 seconds and at 72° C. for 30 seconds. Fluorescent data were measured by the use of Rad CFX96 Real-Time System (Bio-Rad Laboratories).
It has been well known that the release of HMGB1 has a possibility of the function for regulating inflammation and immunity. Therefore, in this study the animals of the test group in which GVHD mouse model was treated with the compound of the present invention and the control model was sacrificed, RNA was extracted from spleen cells, and then cDNA was synthesized and a comparative study on the expression of HMGB1 was carried out by real-time PCR.

[4] = test system: reactive oxygen species (ROS); test: Measurement of reactive oxygen species (ROS) in spleen cells of GVHD mice; format: in vivo; conditions: GVHD mouse spleen cells; 7th and 14th day; dose- and time-dependent; vs control group
Method: Animals of each group were sacrificed, and their spleens were isolated. After single-cell isolation, the obtained cells were washed with phosphate-buffered saline (PBS) twice. The reaction with 3 μM carboxy-H2DCFDA reagent was carried out at 37° C. for 10 minutes. After washing with PBS, the analysis was carried out with a flow cytometer at 540 nm.
Accordingly, the present inventors observed immune response by oxidative stress via GVHD mouse model.

[5] = test system: CD4+ T cells isolated from the spleen cells of C57BL/6; test: Differentiation into regulatory T cells in allogeneic immune cells in vitro; format: cell-based, mouse; conditions: C57BL/6 CD4+ T cells with irradiated BALBc APCs; 5 days; various concentrations
Method: 1×10^6 CD4^+ T cells isolated from the spleen cells of C57BL/6 and BALBc antigen-presenting cells (APCs) irradiated at 20 Gy were added to a 48-well plate and incubated at 37° C. for 5 days. The incubation was carried out under the condition that allogeneic immune response by antigen-presenting cells is induced to the spleen cells, and the treatment with Compound A at various concentrations before incubation was carried out for comparative analysis. The cells were harvested after 5-day incubation, and for flow cytometry anti-mouse CD4 PerCP, CD25 APC and FoxP3 PE fluorescence-labeled antibodies were added thereto and reacted at 4° C. for 30 minutes. After washing with PBS, the measurement was carried out with a flow cytometer (FACSCalibur™).

[6] = test system: CD4+CD25+Foxp3+ regulatory T cells; test: Flow cytometry of spleen cells of GVHD mice (regulatory T cells, CD4+IL-4, CD4+IFN-γ); format: in vivo; conditions: GVHD mouse spleen
Method: Mice were divided into a GVHD group in which (tetrahydropyran-4-yl)-[2-phenyl-5-(1,1-dioxo-thiomorpholin-4-yl)methyl-1H-indol-7-yl]amine (LG Life Sciences Ltd., Daejeon, Korea, hereinafter referred to as “Compound A”) was treated as a test group and a GVHD group in which Compound A was not treated as a control group. The spleens of each group were isolated and single-cell isolation was then carried out. The expression of CD4+CD25+Foxp3+, which is the phenotype of regulatory T cell, and CD4+IFN-γ cells and CD4+IL-4 cells were analyzed by the use of fluorescent monoclonal antibodies and a flow cytometer.
The present inventors found out that in GVHD mouse model, immune transplant rejection was decreased, the production of ROS and HMGB1, and cellular necrosis in tissues were suppressed by the compound of the present invention, so that they intended to observe the possibility of regulating immune response in immune disease animal model. Accordingly, mice of the test group in which the compound of the present invention was treated and the control group were sacrificed, their spleens were isolated, single-cell isolation was carried out, and the function of immune regulation was searched via flow cytometry. As a result, in the group in which the compound of the present invention was treated CD4+CD25+Foxp3+ immune regulatory cells (regulatory T cells) were increased 6 times or more, as compared with the control group. […] In GVHD model, after irradiation of high-dose radiation the transplanted T cells of the donor are activated and proliferated by antigen-presenting cells of the host to secrete IFN-γ which is known as a representative GVHD causing cytokine. […] Therefore, it can be known that the compound of the present invention can suppress immune response by suppressing the activation of the transplanted T cells.

[7] = test system: GVHD mouse model; test: Allogeneic immune response (GVHD) mouse model: survival, body weight, GVHD clinical score, large intestine histology; format: in vivo
Method: 6-8 week-old C57BL/6 (H-2kb) mouse and BALB/c (H-2kd) mouse which have different MHC class from each other were purchased from OrientBio Co., Ltd. After passing the regulation of the management committee of the Department of Laboratory Animal, The Catholic University of Korea, the mice were used under its care. A recipient mouse BALB/c (H-2kd) was irradiated with systemic radiation at 800 cGy. Within 24 hours, bone marrow 5×10^6 cells and spleen 5×10^6 cells isolated from a donor mouse C57BL/6 […] were transplanted into the allogeneic recipient mouse intravenously to induce a graft-versus-host rejection reaction model. The bone marrow-transplanted mouse was observed and evaluation was made of the following: weight, pose, activity, hair condition and skin density with evaluation criteria on the total ten-point scale, two points per each item (Table 1).
4 μm of serial sections were obtained from the paraffin-embedded tissue, treated with xylene three times to remove paraffin, and then hydrated stepwise in 95%, 90% and 70% ethanol. After removing endogenous peroxidase in 0.5% hydrogen peroxide, the specimen was treated with normal goat serum for 30 minutes and then reacted with primary antibody which was diluted with 3% bovine serum albumin (BSA) in PBS according to the manufacturer's instruction for 1 hour. After primary antibody reaction to the expressed proteins directed to genes showing the difference of expression in the above study, the specimen was washed with Tris-buffered saline (TBS) three times, reacted with 5 μg/ml biotinylated anti-mouse/anti-rabbit IgG diluted in 3% BSA for 30 minutes and washed with TBS three times. The specimen was kept in 3 μg/ml horseradish peroxidase streptoavidin for 30 minutes, color development was carried out by the use of DAB and hydrogen peroxide, and counter staining was carried out with Meyer's hematoxylin or 1% methyl green. […]

For `O=S1(=O)CCN(Cc2cc(NC3CCOCC3)c3[nH]c(-c4ccccc4)cc3c2)CC1` [Compound A, (tetrahydropyran-4-yl)-[2-phenyl-5-(1,1-dioxo-thiomorpholin-4-yl)methyl-1H-indol-7-yl]amine], which “CD4+CD25+Foxp3+ regulatory T cells” value [1] is on record?
Its value is “increased”.

And the “differentiation into regulatory T cells” value ([2]; CD4+ T cells with aCD3, aCD28, TGF-beta, 40 μM and 80 μM)?
The value was “increased in a Compound A concentration-dependent manner”.

And the “expression of Foxp3+” value ([2]; CD4+ T cells with aCD3, aCD28, TGF-beta, 40 μM and 80 μM, 3 days, vs control without Compound A)?
Its value is “nearly doubled”.

And the “expression of Foxp3+ (alone or in combination)” value ([2]; aCD3, aCD28, TGF-beta, Compound A 40 or 80 μM, RA 0.1 μM, retinal 1 μM)?
Its value is “increased to a similar extent to the case of treating retinal or RA”.

What about the “release (expression) of HMGB1” value [3] of the same compound?
Its value is “significantly suppressed”.

What about the “generation ratio of reactive oxygen species in cells” value [4] of the same compound?
Its value is “significantly suppressed”.

And the “regulatory T cells” value [5]?
Its value is “increased according to the concentration of Compound A”.

And the “increase of CD4+CD25+Foxp3+ immune regulatory cells (regulatory T cells)” value ([6]; compared with control group)?
Its value is at least 6 times.

And the “CD4+IFN-γ” value ([6]; vs control group)?
Its value is “decreased by more than half”.

And the “CD4+IL-4 cells” value ([6]; vs control group)?
Its value is “increased”.

What about the survival rate ([7]; 0.3 or 1 mg/kg (FIG. 2), compared with non-treated group) of the same compound?
The survival rate was “considerably increased”.

And the body weight ([7]; FIGS. 1 and 2)?
Its body weight is “significant results”.

And the “graft-versus-host reaction (GVHD clinical score)” value ([7]; FIGS. 1 and 2)?
The value was “significant results”.
